Patent US20250177566A1, “USE OF CHEMICAL EPIGENETIC MODIFIERS TO MODULATE GENE EXPRESSION” (The University of North Carolina at Chapel Hill, priority 2022, published 2025)

Tests used:
TRE3G-GFP reporter gene = TRE3G-GFP reporter gene activation in HCT116, dCas9 + MS2-FKBP*x2 (F36V) system, flow cytometry; format: cell-based, human; set-up: fold change, GFP: reference not given here; details: for fold change, GFP (TRE3G gRNA vs NT gRNA): FIG. 1C, 48 hours; for fold change, GFP (TRE3G gRNA vs NT gRNA) / fold change, GFP: 10 nM; for % repress, GFP (no AP1867 vs AP1867 added): FIG. 1D; for fold change, GFP: FIG. 5A
CXCR4 = CXCR4 mRNA activation in HCT116 stably expressing dCas9 and MS2-FKBP*x2, qRT-PCR; format: cell-based, human; details: FIG. 2C; 5 nM; 48 hrs
Protocol: To further explore the activation potential of the SLF*-CEMa, their ability to target endogenous genes was evaluated (FIGS. 2A and 2B). Lentivirus was used to establish a stable HCT116 cell line expressing dCas9 and MS2-FKBP*x2 constructs, selecting for cells with antibiotic resistance. […] All CEMs were screened for their ability to activate the CXCR4 gene at 5 nM (FIG. 2C). RNA extraction and quantitative RT-PCR (qRT-PCR) were performed after 48 hours of CEM treatment.
To determine the optimal treatment concentration of the SLF*-CEMa molecules in this context, HCT116 cells were treated with 1 nM, 5 nM, 25 nM, and 50 nM of CEM203, CEM207, or CEM87. […] After 48 hours, RNA extraction followed by qRT-PCR was performed to evaluate the change in mRNA expression of CXCR4 (FIG. 2D). […] To directly compare this induced activation to other CRISPR-Cas9-based epigenetic activators, dCas9-VPR and dCas9-p300 constructs were virally infected into HCT116 cells and CXCR4 activation assessed in a similar fashion (FIGS. 2A and 2B).
To determine the time at which SLF*-CEMa most effectively induces gene activation, CXCR4 gene expression changes over time were investigated in dCas9 and MS2-FKBP*x2 stably infected HCT116 cells. Cells were treated with either vehicle, […] (FIG. 3A). RNA extraction and qRT-PCR were performed at 12, 24, 48, 72, and 96 hrs time points (FIG. 3B).
To investigate if endogenous gene activation triggered by the SLF*-CEMa compounds is also reversible, HCT116 cells were treated with CEM203 (50 nM) or CEM207 (25 nM) for 24 hours after transfecting CXCR4 gRNA, and then the CEMs were removed by media exchange at various time points. […] Likewise, it was investigated whether treatment with excess AP1867 could further reverse gene activation, potentially in a more robust fashion than with washout alone if there is any remaining intracellular SLF*-CEMa. To test this, after 24 hours of SLF*-CEMa treatment, a media exchange containing 20 μM AP1867 was performed (FIGS. 3C and 3D).
RNA extraction and qRT-PCR. All RNA extraction experiments were conducted in 12-well plate format. Culturing medium was removed, and cells were washed with 1×PBS, following with 0.05% trypsin to disassociate. After being quenched by medium and centrifuged, cells were washed with 1×PBS, and the RNA extraction was performed by using RNeasy Plus Mini kit (Qiagen, 74134). RT-qPCR was conducted by using RNA-to CT 1-step kit (Thermo Fisher Scientific, 4389986). The primer sets used in quantifying each gene can be found in Table 4.

## CC[C@H](C(=O)N1CCCC[C@H]1C(=O)O[C@H](CCc1ccc(OC)c(OC)c1)c1cccc(OCC(=O)O)c1)c1cc(OC)c(OC)c(OC)c1 [AP1867, reference compound]
TRE3G-GFP reporter gene
  fold change, GFP (TRE3G gRNA vs NT gRNA): 1.4 fold
TRE3G-GFP reporter gene; TRE3G gRNA, CEM207 5 nM + AP1867 5 μM
  % repress, GFP (no AP1867 vs AP1867 added): 45%
TRE3G-GFP reporter gene; TRE3G gRNA, CEM207 5 nM + AP1867 10 μM
  % repress, GFP (no AP1867 vs AP1867 added): 84%
TRE3G-GFP reporter gene; TRE3G gRNA, CEM207 5 nM + AP1867 20 μM
  % repress, GFP (no AP1867 vs AP1867 added): 91%
TRE3G-GFP reporter gene; FIG. 5B, TRE3G gRNA, CEM207 5 nM + AP1867 500 nM, 48 hrs
  fold change, GFP (no AP1867 vs AP1867 added): No change in GFP expression

## CC[C@H](C(=O)N1CCCC[C@H]1C(=O)O[C@H](CCc1ccc(OC)c(OC)c1)c1cccc(OCC(=O)NCCOCCOCCNC(=O)C[C@@H]2N=C(c3ccc(Cl)cc3)c3cc(OC)ccc3-n3c(C)nnc32)c1)c1cc(OC)c(OC)c(OC)c1 [CEM201, (1R)-1-(3-((14-((4S)-6-(4-Chlorophenyl)-8-methoxy-1-methyl-4H-benzo[f][1,2,4]triazolo[4,3-a][1,4]diazepin-4-yl)-2,13-dioxo-6,9-dioxa-3,12-diazatetradecyl)oxy)phenyl)-3-(3,4-dimethoxyphenyl) propyl (2S)-1-((S)-2-(3,4,5-trimethoxyphenyl)butanoyl) piperidine-2-carboxylate]
TRE3G-GFP reporter gene; NT gRNA, 48 hrs
  fold change, GFP: 0.6 fold
TRE3G-GFP reporter gene; TRE3G gRNA, 48 hrs
  fold change, GFP: 8.2 fold
CXCR4
  fold change, CXCR4 mRNA (Treated vs Non-Treated): 5.8 fold

## CC[C@H](C(=O)N1CCCC[C@H]1C(=O)O[C@H](CCc1ccc(OC)c(OC)c1)c1cccc(OCC(=O)NCCOCCOCCOCCOCCOCCNC(=O)C[C@@H]2N=C(c3ccc(Cl)cc3)c3cc(OC)ccc3-n3c(C)nnc32)c1)c1cc(OC)c(OC)c(OC)c1 [CEM204, (1R)-1-(3-((23-((4S)-6-(4-Chlorophenyl)-8-methoxy-1-methyl-4H-benzo[f][1,2,4]triazolo[4,3-a][1,4]diazepin-4-yl)-2,22-dioxo-6,9,12,15,18-pentaoxa-3,21-diazatricosyl)oxy)phenyl)-3-(3,4-dimethoxyphenyl) propyl (2S)-1-((S)-2-(3,4,5-trimethoxyphenyl)butanoyl) piperidine-2-carboxylate]
TRE3G-GFP reporter gene; NT gRNA, 48 hrs
  fold change, GFP: 0.3 fold
TRE3G-GFP reporter gene; TRE3G gRNA, 48 hrs
  fold change, GFP: 5.7 fold
CXCR4
  fold change, CXCR4 mRNA (Treated vs Non-Treated): 7.2 fold

## CC[C@H](C(=O)N1CCCC[C@H]1C(=O)O[C@H](CCc1ccc(OC)c(OC)c1)c1cccc(OCC(=O)NCCOCCOCCOCCOCCOCCOCCNC(=O)C[C@@H]2N=C(c3ccc(Cl)cc3)c3cc(OC)ccc3-n3c(C)nnc32)c1)c1cc(OC)c(OC)c(OC)c1 [CEM205, (1R)-1-(3-((26-((4S)-6-(4-Chlorophenyl)-8-methoxy-1-methyl-4H-benzo[f][1,2,4]triazolo[4,3-a][1,4]diazepin-4-yl)-2,25-dioxo-6,9,12,15,18,21-hexaoxa-3,24-diazahexacosyl)oxy)phenyl)-3-(3,4-dimethoxyphenyl) propyl (2S)-1-((S)-2-(3,4,5-trimethoxyphenyl)butanoyl) piperidine-2-carboxylate]
TRE3G-GFP reporter gene; NT gRNA, 48 hrs
  fold change, GFP: 0.4 fold
TRE3G-GFP reporter gene; TRE3G gRNA, 48 hrs
  fold change, GFP: 6.9 fold
CXCR4
  fold change, CXCR4 mRNA (Treated vs Non-Treated): 8.8 fold

## CC[C@H](C(=O)N1CCCC[C@H]1C(=O)O[C@H](CCc1ccc(OC)c(OC)c1)c1cccc(OCC(=O)NCCOCCOCCOCCOCCOCCOCCOCCNC(=O)C[C@@H]2N=C(c3ccc(Cl)cc3)c3cc(OC)ccc3-n3c(C)nnc32)c1)c1cc(OC)c(OC)c(OC)c1 [CEM206, (1R)-1-(3-((29-((4S)-6-(4-Chlorophenyl)-8-methoxy-1-methyl-4H-benzo[f][1,2,4]triazolo[4,3-a][1,4]diazepin-4-yl)-2,28-dioxo-6,9,12,15,18,21,24-heptaoxa-3,27-diazanonacosyl)oxy)phenyl)-3-(3,4-dimethoxyphenyl) propyl (2S)-1-((S)-2-(3,4,5-trimethoxyphenyl)butanoyl) piperidine-2-carboxylate]
TRE3G-GFP reporter gene; NT gRNA, 48 hrs
  fold change, GFP: 0.3 fold
TRE3G-GFP reporter gene; TRE3G gRNA, 48 hrs
  fold change, GFP: 8.5 fold
CXCR4
  fold change, CXCR4 mRNA (Treated vs Non-Treated): 13.9 fold

## CC[C@H](C(=O)N1CCCC[C@H]1C(=O)O[C@H](CCc1ccc(OC)c(OC)c1)c1cccc(OCC(=O)NCCOCCOCCOCCNC(=O)C[C@@H]2N=C(c3ccc(Cl)cc3)c3c(sc(C)c3C)-n3c(C)nnc32)c1)c1cc(OC)c(OC)c(OC)c1 [CEM208, (R)-1-(3-((17-((S)-4-(4-Chlorophenyl)-2,3,9-trimethyl-6H-thieno[3,2-f][1,2,4]triazolo[4,3-a][1,4]diazepin-6-yl)-2,16-dioxo-6,9,12-trioxa-3,15-diazaheptadecyl)oxy)phenyl)-3-(3,4-dimethoxyphenyl) propyl(S)-1-((S)-2-(3,4,5-trimethoxyphenyl)butanoyl) piperidine-2-carboxylate]
TRE3G-GFP reporter gene; NT gRNA, 48 hrs
  fold change, GFP: 0.4 fold
TRE3G-GFP reporter gene; TRE3G gRNA, 48 hrs
  fold change, GFP: 8.1 fold
CXCR4
  fold change, CXCR4 mRNA (Treated vs Non-Treated): 11.5 fold

## CC[C@H](C(=O)N1CCCC[C@H]1C(=O)O[C@H](CCc1ccc(OC)c(OC)c1)c1cccc(OCC(=O)NCCOCCOCCOCCOCCNC(=O)C[C@@H]2N=C(c3ccc(Cl)cc3)c3c(sc(C)c3C)-n3c(C)nnc32)c1)c1cc(OC)c(OC)c(OC)c1 [CEM209, (R)-1-(3-((20-((S)-4-(4-Chlorophenyl)-2,3,9-trimethyl-6H-thieno[3,2-f][1,2,4]triazolo[4,3-a][1,4]diazepin-6-yl)-2,19-dioxo-6,9,12,15-tetraoxa-3,18-diazaicosyl)oxy)phenyl)-3-(3,4-dimethoxyphenyl) propyl(S)-1-((S)-2-(3,4,5-trimethoxyphenyl)butanoyl) piperidine-2-carboxylate]
TRE3G-GFP reporter gene; NT gRNA, 48 hrs
  fold change, GFP: 0.5 fold
TRE3G-GFP reporter gene; TRE3G gRNA, 48 hrs
  fold change, GFP: 4.3 fold
CXCR4
  fold change, CXCR4 mRNA (Treated vs Non-Treated): 11.1 fold

## CC[C@H](C(=O)N1CCCC[C@H]1C(=O)O[C@H](CCc1ccc(OC)c(OC)c1)c1cccc(OCC(=O)NCCOCCOCCOCCOCCOCCNC(=O)C[C@@H]2N=C(c3ccc(Cl)cc3)c3c(sc(C)c3C)-n3c(C)nnc32)c1)c1cc(OC)c(OC)c(OC)c1 [CEM210, (R)-1-(3-((23-((S)-4-(4-Chlorophenyl)-2,3,9-trimethyl-6H-thieno[3,2-f][1,2,4]triazolo[4,3-a][1,4]diazepin-6-yl)-2,22-dioxo-6,9,12,15,18-pentaoxa-3,21-diazatricosyl)oxy)phenyl)-3-(3,4-dimethoxyphenyl) propyl(S)-1-((S)-2-(3,4,5-trimethoxyphenyl)butanoyl) piperidine-2-carboxylate]
TRE3G-GFP reporter gene; NT gRNA, 48 hrs
  fold change, GFP: 0.4 fold
TRE3G-GFP reporter gene; TRE3G gRNA, 48 hrs
  fold change, GFP: 8.5 fold
CXCR4
  fold change, CXCR4 mRNA (Treated vs Non-Treated): 12.0 fold

## CC[C@H](C(=O)N1CCCC[C@H]1C(=O)O[C@H](CCc1ccc(OC)c(OC)c1)c1cccc(OCC(=O)NCCOCCOCCOCCOCCOCCOCCNC(=O)C[C@@H]2N=C(c3ccc(Cl)cc3)c3c(sc(C)c3C)-n3c(C)nnc32)c1)c1cc(OC)c(OC)c(OC)c1 [CEM211, (R)-1-(3-((26-((S)-4-(4-Chlorophenyl)-2,3,9-trimethyl-6H-thieno[3,2-f][1,2,4]triazolo[4,3-a][1,4]diazepin-6-yl)-2,25-dioxo-6,9,12,15,18,21-hexaoxa-3,24-diazahexacosyl)oxy)phenyl)-3-(3,4-dimethoxyphenyl) propyl(S)-1-((S)-2-(3,4,5-trimethoxyphenyl)butanoyl) piperidine-2-carboxylate]
TRE3G-GFP reporter gene; NT gRNA, 48 hrs
  fold change, GFP: 0.4 fold
TRE3G-GFP reporter gene; TRE3G gRNA, 48 hrs
  fold change, GFP: 7.8 fold
CXCR4
  fold change, CXCR4 mRNA (Treated vs Non-Treated): 8.5 fold

## CCNC(=O)C[C@@H]1N=C(c2ccc(Cl)cc2)c2cc(OC)ccc2-n2c(C)nnc21 [iBET762, reference compound]
TRE3G-GFP reporter gene
  fold change, GFP (TRE3G gRNA vs NT gRNA): 2.4 fold
